Molecular target: T1, pig liver glycolate oxidase (Sus scrofa, UniProt I3LVF1)
T1 construct: The enzyme was pig liver glycolate oxidase; from tissue; host or cells: pig liver
T1 sequence (I3LVF1 1-370): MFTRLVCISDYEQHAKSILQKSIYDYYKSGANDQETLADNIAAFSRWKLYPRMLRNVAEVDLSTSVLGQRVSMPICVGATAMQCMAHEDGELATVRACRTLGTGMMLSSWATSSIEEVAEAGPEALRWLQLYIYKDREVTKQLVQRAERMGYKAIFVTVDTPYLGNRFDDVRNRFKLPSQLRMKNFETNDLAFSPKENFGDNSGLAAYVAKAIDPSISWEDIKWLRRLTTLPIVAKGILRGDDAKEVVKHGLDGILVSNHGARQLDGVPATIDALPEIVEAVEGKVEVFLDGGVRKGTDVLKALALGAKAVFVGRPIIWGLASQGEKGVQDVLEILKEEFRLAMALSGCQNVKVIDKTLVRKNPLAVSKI
Assay: Glycolate Oxidase Enzyme Inhibition
Format: biochemical
Details: 25° C., 0.10 M phosphate buffer, pH 7.0, 3 mM EDTA; 2×10^-4 M sodium glycolate; initial rates 1 to 3 minutes, 600 nm
Procedure: The usefulness of the compounds of the present invention in treating urinary tract, especially renal, calcium oxalate lithiasis, is shown by the ability of those compounds to inhibit the glycolate oxidase enzyme. […] The activity of the enzyme, in turn, was measured by following the rate of reduction of sodium 2,6-dichlorophenyl-indophenol by sodium glycolate in the presence of the enzyme. The enzyme was pig liver glycolate oxidase. The reaction was followed spectrophotometrically at 600 nm. The assay was conducted at 25° C. in a 0.10 M phosphate buffer, pH 7.0, containing 3 mM EDTA. Initial substrate concentrations were 5×10^-5 M of […] and 2×10^-4 M of sodium glycolate. Reactions were initiated by the addition of enzyme. Initial rates during the period from 1 to 3 minutes after the addition of enzyme were recorded on a Beckman Acta M-VI spectrophotometer. One control was run simultaneously with three reactions, and all initial rates were adjusted to a common control rate. For further details of this procedure, see Randall et al., J. Med. Chem., 22, 6,612 (1979).

With `CCCCCCCCCc1ccc(C(=O)CC(=O)C(=O)O)cc1` [2,4-dioxo-4-(4-nonylphenyl)-1-butanoic acid] the IC50 was 0.67 µM.

`O=C(O)C(=O)CC(=O)c1ccc(C2CCCCC2)cc1` [4-(4-cyclohexylphenyl)-2,4-dioxo-1-butanoic acid] showed an IC50 of 2.5 µM.

Work on `O=C(O)C(=O)CC(=O)c1ccc(C2CCCc3ccccc32)cc1` (centres unmarked) [4-[4-(1,2,3,4-tetrahydro-1-naphthalenyl)phenyl]-2,4-dioxo-1-butanoic acid] yielded an IC50 of 2.1 µM.

With `O=C(O)C(=O)CC(=O)c1ccc(Cc2ccc(Cl)c(Cl)c2)cc1` [4-[4-(3,4-dichlorophenylmethyl)phenyl]-2,4-dioxo-1-butanoic acid] the IC50 was 0.46 µM.

For `O=C(O)C(=O)CC(=O)c1ccc(-c2ccc(Br)cc2)cc1` [4-[(4'-bromo-1,1'-biphenyl)-4-yl]-2,4-dioxo-1-butanoic acid], the IC50 was 0.07 µM.

— patent publication US4336397A, “2,4-Dioxo-4-substituted-1-butanoic acid derivatives useful in treating urinary tract calcium oxalate lithiasis” (Merck & Co., Inc., priority 1980, dated 1982)
